Assay results taken from US12234245B2, “Sulfonimidamide compounds as inhibitors of interleukin-1 activity” (Genentech, Inc., priority 2018, dated 2025).
Like-named read-outs stand apart in the source and are kept apart here.

Assays:
Type in all cases: cell-based
PBMCs = assay: CTG (CellTiter-Glo) viability assay in PBMCs; conditions: LPS and nigericin stimulated
Procedure: (§1) Human peripheral blood mononuclear cells (PBMCs), consisting of lymphocytes (T, B and NK cells), monocytes and dendritic cells, were freshly isolated from human peripheral blood from healthy donors. Cells were obtained through an IRB approved donor program by iXCells Biotechnologies where all the donors were tested for bacterial and viral infections. Cells were purified from peripheral blood using ficoll gradient centrifugation.
(§2) Fresh or cryopreserved PMBCs were seeded in V-bottom 96-well plate at 0.5-1×10^5 cells per well and incubated overnight at 37° C. with 5% CO2 in RPMI 1640 medium with GlutaMAX supplement, 4.5 g/L D-glucose, 10% Fetal Bovine Serum (FBS), […] Sodium Pyruvate, 1% Penicillin/Streptomycin, 10 mM HEPES and 0.05 mM of β-mercaptoethanol. Freshly isolated or cryopreserved KCs cells were seeded in flat-bottom 96-well plates at 0.6-1.5×10^5 cells/well and incubated overnight at 37° C. 5% CO2 in RPMI 1640 Medium with GlutaMAX supplement, FBS, 1% Penicillin/Streptomycin and 10 mM HEPES. The following day, the cells were primed with 100 ng/mL of lipopolysaccharides (LPS; Sigma Aldrich) in FBS-free RPMI 1640 for 3 h. After the priming step, the media was removed and PBMCs were pre-incubated with serial concentrations of test compounds (0.00017-10 uM) or vehicle (DMSO) for 30 min in FBS-free media prior to addition of the NLRP3 activator. Cells were then stimulated with 10 uM Nigericin (Sigma Aldrich; InvivoGen) for 1.5 h. Plates were centrifuged at 1,500 rpm for 3 minutes to pellet cells and supernatant was transferred into new plates for subsequent experiments.
Viability of compound treated cells was measured using CellTiter-Glo® assay (Promega, Madison, Wis.) that measures the ATP content of cells which is proportional to the number of live cells within a well. This is a counter-screen to establish that the reduction of IL-1β levels in LPS and nigericin stimulated and compound treated cells is not due to cytotoxicity, but rather through the inhibition of the inflammasome pathway. Compounds inhibiting NRLP3 inflammasome activation ultimately increase the viability of LPS and nigericin stimulated cells by blocking NLRP3 mediated pyroptosis that would otherwise lead to cell lysis.

NLRP3 inflammasome [1] = molecular target: T1, NLRP3 inflammasome (Homo sapiens, UniProt Q96P20); assay: THP-1 ASC-GFP speck assay; parameters: host or cells: THP-1 ASC-GFP cells, PMA-differentiated, LPS-primed, nigericin-stimulated; conditions: THP-1 ASC-GFP cells, PMA differentiated, LPS primed, 10 μM nigericin; read-out: THP1 ASC Speck IC50
Method in brief: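 PMA-differentiated (500 ng/ml, overnight) THP-1 ASC-GFP cells primed with 1 μg/mL LPS for 3 h, preincubated 30 min with compound (top 40 μM, 2-fold, 20 points), then stimulated with 10 μM nigericin for 90 min at 37 °C. After fixation and Hoechst staining, imaging gave the percentage of cells bearing a GFP ASC speck.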

NLRP3 inflammasome [2] = molecular target: T1, NLRP3 inflammasome; assay: NLRP3 inflammasome activation assay in PBMCs, IL-1β release (ELISA / HTRF); parameters: were freshly isolated from human peripheral blood from healthy donors; StemCells Technologies; host or cells: primary human PBMCs, LPS-primed, nigericin-stimulated; conditions: LPS primed
Procedure: Some of the following assays were used to determine the inhibitory activity of the compounds on the NLRP3 inflammasome using a common inflammasome activation stimuli—nigericin.
as §1, §2
For ELISA assays cells were seeded into 96-well plates. Post study, supernatants were removed and the levels of mature IL-1β, IL18 and TNFα (Quantikine ELISA, R&D systems) were measured in cell conditioned media by ELISA according to manufacturer's instructions.
Human frozen PBMCs were purchased from StemCells Technologies. Cells were rapidly thawed in 37° C. water bath and resuspended in fresh assay media consisting of RPMI 1640 Medium containing 1% sodium pyruvate, 10 mM HEPES, 2.5 g/L glucose and 55 μM 2-Mercaptoethanol. Cell density was adjusted to 8.1×10^5 cells/mL. Cells were primed by adding lipopolysaccharide (Invivogen Ultrapure lipopolysaccharide from E. coli, tlrl-3pelps) at a final concentration of 100 ng/mL in cell suspension. 37 μL of cell suspension with LPS was seeded per well of a 384 well plate and incubated for 3 hours at 37° C. and 5% CO2. After priming, PBMCs were preincubated with serially diluted test compounds with starting concentration of 40 μM followed by 2-fold dilution for a 20-point curve or vehicle (DMSO) for 30 min in assay media at 37° C. and 5% CO2. Cells were then stimulated with 10 μM nigericin (Invivogen, tlrl-nig-5) for 90 min at 37° C. and 5% CO2 to activate NLRP3 dependent inflammasome pathway and IL-1β release in cell culture supernatant. Cells were centrifuged at 1200 RPM for 1 min and 40 μL of supernatant was transferred into fresh plates and stored at −80° C. until IL-1β analysis.
16 μL of supernatant was added to white 384 well HTRF plates, followed by addition of 4 μL of HTRF cocktail in each well. Plates were quickly centrifuged, sealed and incubated overnight at room temperature. Next day, HTRF signal was read on a Pherastar and ratio of 665/620 was calculated based on manufacturer's protocol to obtain concentration of IL-1β in cell culture supernatant.

[3] = human PBMCs, read-out: PBMC CTG IC50
[4] = 10 μM nigericin, read-out: PBMC IL-1β IC50
[5] = 10 uM nigericin, read-out: PBMC IL-1 β IC50

T1 sequence (Q96P20 whole entry): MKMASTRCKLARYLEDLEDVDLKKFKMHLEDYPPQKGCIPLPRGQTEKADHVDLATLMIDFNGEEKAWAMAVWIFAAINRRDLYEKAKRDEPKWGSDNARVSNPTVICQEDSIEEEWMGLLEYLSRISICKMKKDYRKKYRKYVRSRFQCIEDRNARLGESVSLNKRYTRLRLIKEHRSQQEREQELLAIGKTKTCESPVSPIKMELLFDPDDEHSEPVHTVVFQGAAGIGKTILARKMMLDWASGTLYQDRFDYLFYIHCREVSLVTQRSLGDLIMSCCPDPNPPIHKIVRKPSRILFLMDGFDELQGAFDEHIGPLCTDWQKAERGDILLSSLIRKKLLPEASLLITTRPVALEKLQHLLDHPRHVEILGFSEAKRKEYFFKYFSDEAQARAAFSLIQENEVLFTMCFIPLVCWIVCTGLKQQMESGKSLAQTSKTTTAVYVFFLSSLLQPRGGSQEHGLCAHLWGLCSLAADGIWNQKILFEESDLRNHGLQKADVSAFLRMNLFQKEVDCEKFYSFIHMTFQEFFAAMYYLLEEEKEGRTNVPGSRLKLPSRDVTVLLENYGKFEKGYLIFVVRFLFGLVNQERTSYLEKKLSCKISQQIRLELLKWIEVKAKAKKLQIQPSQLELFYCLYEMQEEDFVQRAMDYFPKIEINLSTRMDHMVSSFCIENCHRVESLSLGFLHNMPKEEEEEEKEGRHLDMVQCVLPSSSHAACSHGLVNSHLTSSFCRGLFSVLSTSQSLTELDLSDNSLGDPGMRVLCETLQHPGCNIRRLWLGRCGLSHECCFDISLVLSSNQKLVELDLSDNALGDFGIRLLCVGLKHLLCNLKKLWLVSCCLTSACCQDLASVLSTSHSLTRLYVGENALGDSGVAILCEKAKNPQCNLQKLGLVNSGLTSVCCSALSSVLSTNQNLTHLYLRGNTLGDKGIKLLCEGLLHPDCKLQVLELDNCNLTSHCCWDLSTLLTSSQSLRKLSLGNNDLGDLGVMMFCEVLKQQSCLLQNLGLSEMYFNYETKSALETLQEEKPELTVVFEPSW

Row | SMILES | IC50 (PBMCs; [3]) | IC50 (NLRP3 inflammasome [1]) | IC50 (NLRP3 inflammasome [2]; [4]) | IC50 (PBMCs; Homo sapiens, PBMC) | IC50 (NLRP3 inflammasome [2]; [5])
1 | CNC1COc2c(S(N)(=O)=NC(=O)Nc3c4c(c(F)c5c3CCC5)CCC4)cnn2C1 (single isomer, unassigned) [Example 41] | 1310 nM | 430 nM | 6800 nM |  | 
2 | CC(C)c1cc(F)cc(C(C)C)c1NC(=O)NS(=N)(=O)c1cnn2c1OCCC2 (stereo not shown) [drawing 655] |  |  |  | < 100 nM | 100 to 1000 nM
3 | CNC1COc2c(S(N)(=O)=NC(=O)Nc3c4c(cc5c3CCC5)CCC4)cnn2C1 (single isomer, unassigned) [Example 25] | 8 nM |  | 300 nM |  | 
4 | NS(=O)(=NC(=O)Nc1c2c(cc3c1CCC3)CCC2)c1cnn2c1OCC(NCCF)C2 (single isomer, unassigned) [Example 36] | 170 nM | 66 nM | 50 nM |  | 
5 | CC(C)c1cc(F)cc(C(C)C)c1NC(=O)N=S(N)(=O)c1cnn2c1OCCC2 (single isomer, unassigned) [Example 8] | 2 nM | 9400 nM | 1000 nM |  | 
6 | CC(C)c1cc(F)cc(C(C)C)c1NC(=O)NS(=N)(=O)c1cnn2c1OCCC2 (stereo not shown) [drawing 651] | 100 to 1000 nM |  |  |  | 100 to 1000 nM
7 | COC1CN(C2COc3c(S(N)(=O)=NC(=O)Nc4c5c(cc6c4CCC6)CCC5)cnn3C2)C1 (single isomer, unassigned) [Example 39] | 150 nM |  | 19 nM |  | 
8 | NS(=O)(=NC(=O)Nc1c2c(cc3c1CCC3)CCC2)c1cnn(CC2CC2)c1 (racemic) [Example 10, 1-(cyclopropylmethyl)-N′-((1,2,3,5,6,7-hexahydro-s-indacen-4-yl)carbamoyl)-1H-pyrazole-4-sulfonimidamide] |  |  | 350 nM | 360 nM | 
9 | CO[C@@H]1COc2c(S(=N)(=O)NC(=O)Nc3c4c(cc5c3CCC5)CCC4)cnn2C1 (stereo partly shown) [drawing 650] | < 100 nM |  |  |  | < 100 nM
10 | CC(C)c1cc(F)cc(C(C)C)c1NC(=O)NS(=N)(=O)c1cnn2c1OCCC2 (stereo not shown) [drawing 656] | < 100 nM |  |  |  | 100 to 1000 nM
11 | CN=S(=O)(NC(=O)Nc1c2c(cc3c1CCC3)CCC2)c1cnn2c1OCCC2 (stereo not shown) |  |  |  | > 10000 nM | > 10000 nM
12 | NS(=O)(=NC(=O)Nc1c2c(cc3c1CCC3)CCC2)c1cnn2c1OCC(NCCF)C2 (single isomer, unassigned) [Example 35] |  |  | 180 nM | 250 nM | 
13 | N=S(=O)(NC(=O)Nc1c2c(cc3c1CCC3)CCC2)c1cnn(CC2CC2)c1 (stereo not shown) |  |  |  | 100 to 1000 nM | 100 to 1000 nM
14 | NS(=O)(=NC(=O)Nc1c2c(c(F)c3c1CCC3)CCC2)c1cnn2c1OCCC2 (stereo not shown) |  |  |  | < 100 nM | < 100 nM
15 | CC(C)c1cc(F)cc(C(C)C)c1NC(=O)N=S(N)(=O)c1cnn2c1OCCC2 (single isomer, unassigned) [Example 7] |  |  | 290 nM | 3 nM | 
16 | COC1CN(C2COc3c(S(N)(=O)=NC(=O)Nc4c5c(cc6c4CCC6)CCC5)cnn3C2)C1 (single isomer, unassigned) [Example 38] | 1160 nM | 1500 nM | 2030 nM |  | 
17 | CO[C@@H]1COc2c(S(N)(=O)=NC(=O)Nc3c4c(cc5c3CCC5)CCC4)cnn2C1 (mixture of isomers) [Example 2, (6S)—N′-((1,2,3,5,6,7-hexahydro-s-indacen-4-yl)carbamoyl)-6-methoxy-6,7-dihydro-5H-pyrazolo[5,1-b][1,3]oxazine-3-sulfonimidamide] |  |  | 24 nM | 100 nM | 
18 | NS(=O)(=NC(=O)Nc1c2c(c(C(=O)O)c3c1CCC3)CCC2)c1cnn2c1OCCC2 (racemic) [Example 37, 8-(3-(6,7-dihydro-5H-pyrazolo[5,1-b][1,3]oxazine-3-sulfonimidoyl)ureido)-1,2,3,5,6,7-hexahydro-s-indacene-4-carboxylic acid] |  | > 20000 nM | > 10000 nM | > 10000 nM | 
19 | Cn1cc(S(N)(=O)=NC(=O)Nc2c3c(cc4c2CCC4)CCC3)cn1 (stereo not shown) |  |  |  | 100 to 1000 nM | 100 to 1000 nM
20 | CNC1COc2c(S(N)(=O)=NC(=O)Nc3c4c(c(F)c5c3CCC5)CCC4)cnn2C1 (single isomer, unassigned) [Example 40] | 3 nM | 8.8 nM | 4.9 nM |  | 
21 | NS(=O)(=NC(=O)Nc1c2c(c(F)c3c1CCC3)CCC2)c1cnn2c1OCCC2 (racemic) [Example 4, N′-((8-fluoro-1,2,3,5,6,7-hexahydro-s-indacen-4-yl)carbamoyl)-6,7-dihydro-5H-pyrazolo[5,1-b][1,3]oxazine-3-sulfonimidamide] |  |  | 50 nM | 35 nM | 
22 | CC(C)c1cc(F)cc(C(C)C)c1NC(=O)N=S(N)(=O)c1cnn2c1OCCC2 (racemic) [Example 3, N′-((4-fluoro-2,6-diisopropylphenyl)carbamoyl)-6,7-dihydro-5H-pyrazolo[5,1-b][1,3]oxazine-3-sulfonimidamide] |  |  | 410 nM | 176 nM | 
23 | CNS(=O)(=NC(=O)Nc1c2c(cc3c1CCC3)CCC2)c1cnn2c1OCCC2 (racemic) [Example 9, N′-((1,2,3,5,6,7-hexahydro-s-indacen-4-yl)carbamoyl)-N-methyl-6,7-dihydro-5H-pyrazolo[5,1-b][1,3]oxazine-3-sulfonimidamide] |  |  | > 10000 nM | > 10000 nM | 
24 | Cn1cc(S(N)(=O)=NC(=O)Nc2c3c(cc4c2CCC4)CCC3)cn1 (racemic) [Example 5, N′-((1,2,3,5,6,7-hexahydro-s-indacen-4-yl)carbamoyl)-1-methyl-1H-pyrazole-4-sulfonimidamide] |  |  | 1020 nM | 648 nM | 
25 | CC1(C)COc2c(S(N)(=O)=NC(=O)Nc3c4c(cc5c3CCC5)CCC4)cnn2C1 (stereo not shown) |  |  |  | < 100 nM | < 100 nM
26 | NS(=O)(=NC(=O)Nc1c2c(c(F)c3c1CCC3)CCC2)c1cnn2c1OCCC2 (single isomer, unassigned) [Example 22] | 66 nM | 150 nM | 95 nM |  | 
27 | CC1(C)COc2c(S(N)(=O)=NC(=O)Nc3c4c(cc5c3CCC5)CCC4)cnn2C1 (racemic) [Example 6, N′-((1,2,3,5,6,7-hexahydro-s-indacen-4-yl)carbamoyl)-6,6-dimethyl-6,7-dihydro-5H-pyrazolo[5,1-b][1,3]oxazine-3-sulfonimidamide] |  |  | 14 nM | 3 nM | 
